In US20070032458A1, “Compound having activity for inhibiting dioxin toxicity, pharmaceutical composition comprising the compound and method for treating disease resulting from dioxin toxicity using the compound” (priority 2005, published 2007):
Where two headings read alike, the source gives them in different places.

Key:
[1] = test system: Cytochrome P450 enzyme activity (ethoxyresorufin-O-deethylase activity); assay: Dioxin-induced EROD (cytochrome P450 enzyme) activity inhibition in Hep G2 cells; format: cell-based; details: Homo sapiens, read-out: Dioxin-induced EROD activity inhibition IC50
Protocol: (§1) Hep G2 cell that is a human hepatocarcinoma cell line was cultured in an incubator with a culture medium of Dulbecco's Modified Eagle Medium (DMEM) containing 10% of Fetal Bovine Serum (FBS) at 37° C. under an atmosphere of 5% of CO2.
1×104 of the cultured human hepatocarcinoma cells were placed into wells of a […]. After 24 hours, the cells were treated with a solution in which compounds represented by formulae 2 through 8 (obtained from Chembridge Corporation, San Diego, Calif.) were dissolved in dimethyl sulfoxide (DMSO) in a concentration of 0.1%. After one hour, the cells were treated with 3 nM of 2,3,7,8-tetrachlorodibenzo-p-dioxin (obtained from Cambridge Isotope Laboratory, Andover, Mass., U.S.A.). Cytochrome P450 enzyme activity was measured after 24 hours and the measured activity was evaluated by measuring ethoxyresorufin-O-deethylase activity (EROD, Ciolino et al, 1998).

cytochrome P450 1A1 = assay: Western blot of dioxin-induced cytochrome P450 1A1 expression in hepatocarcinoma cells; format: cell-based, human
Protocol: as §1
3×10^5 of the cultured human hepatocarcinoma cells were placed into tissue culture plates and cultured for 24 hours. After 24 hours, the cells were treated with a solution in which Compound 2 (obtained from Chembridge Corporation, San Diego, Calif.) was dissolved in dimethyl sulfoxide (DMSO) in a concentration of 0.1%. After one hour, the cells were treated with 3 nM of 2,3,7,8-tetrachlorodibenzo-p-dioxin (obtained from Cambridge Isotope Laboratory, Andover, Mass., U.S.A.). After 24 hours, the culture medium was removed by suction and the cells were washed with phosphate buffer solution. Then the cells were lysed and the protein was quantified.
In FIG. 1, flavone that has been widely reported to inhibit dioxin toxicity even though it increases dioxin toxicity at high concentrations was used as a positive control group. FIG. 1 illustrates Western blot analysis of cells treated with Compound 2 and flavone.

dioxin receptor = biological target: T1, dioxin receptor (Homo sapiens, UniProt P35869); assay: Inhibition of 3[H]-dioxin binding to its receptor in hepatocarcinoma cell cytoplasm (hydroxylapatite)
T1 construct: endogenous in cells; host or cells: hepatocarcinoma cells (cytoplasm fraction)
T1 sequence (P35869 11-848): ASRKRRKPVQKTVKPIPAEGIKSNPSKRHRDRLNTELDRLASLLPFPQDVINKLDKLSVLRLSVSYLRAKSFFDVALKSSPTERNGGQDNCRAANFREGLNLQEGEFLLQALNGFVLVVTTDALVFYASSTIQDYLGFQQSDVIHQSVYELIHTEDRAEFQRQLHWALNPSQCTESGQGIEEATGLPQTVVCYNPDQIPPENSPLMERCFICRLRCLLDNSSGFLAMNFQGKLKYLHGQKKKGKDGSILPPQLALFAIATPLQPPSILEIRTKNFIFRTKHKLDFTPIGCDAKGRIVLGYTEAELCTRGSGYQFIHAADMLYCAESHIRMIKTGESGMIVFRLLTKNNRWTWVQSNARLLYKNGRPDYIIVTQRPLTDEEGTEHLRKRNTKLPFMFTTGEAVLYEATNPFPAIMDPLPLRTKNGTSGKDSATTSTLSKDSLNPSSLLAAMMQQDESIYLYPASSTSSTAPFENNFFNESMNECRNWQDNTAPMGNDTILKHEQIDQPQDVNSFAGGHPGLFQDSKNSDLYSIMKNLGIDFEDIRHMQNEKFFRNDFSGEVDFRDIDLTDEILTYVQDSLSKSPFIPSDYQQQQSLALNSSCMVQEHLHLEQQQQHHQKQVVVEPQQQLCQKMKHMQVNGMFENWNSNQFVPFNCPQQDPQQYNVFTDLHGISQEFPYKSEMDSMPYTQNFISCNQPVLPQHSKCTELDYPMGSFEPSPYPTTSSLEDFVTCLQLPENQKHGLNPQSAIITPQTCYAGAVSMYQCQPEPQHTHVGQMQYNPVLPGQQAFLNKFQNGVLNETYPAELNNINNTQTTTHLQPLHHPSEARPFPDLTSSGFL
Protocol: Compound 2 and 3[H]-dioxin were added to cytoplasm of hepatocarcinoma cells and analysis on binding of ligand-receptor was performed using hydroxylapatite. […] The results are illustrated in FIG. 2.
FIG. 2 illustrates the ability in percentage of Compound 2 to inhibit the binding of 3[H]-dioxin to its receptor.

SMILES	IC50 ([1]; HepG2, 24 h)	also measured
Cc1ccccc1N=Nc1ccc(NC(=O)c2ccnn2C)c(C)c1 [Compound 2]	30 ± 2 nM	expression of cytochrome P450 1A1 that is increased by dioxin (cytochrome P450 1A1; human hepatocarcinoma cells, 3 nM dioxin, 24 hours, Western blot): inhibited expression of cytochrome P450 1A1; effect in decreasing the amount of expressed cytochrome P450 enzyme (cytochrome P450 1A1; various concentrations, FIG. 1): excellent effect; binding ability of 3[H]-dioxin to its receptor with increasing concentration (dioxin receptor; Compound 2 at 0.1, 1 and 10 μM, FIG. 2): decreased as the concentration of Compound 2 increased; binding of 3[H]-dioxin to its receptor (dioxin receptor; cytoplasm of hepatocarcinoma cells, hydroxylapatite): inhibited the binding
CC(=O)N(C(C)=O)c1ccc(N=Nc2ccccc2C)cc1C [Compound 3]	75 ± 4 nM	–
Cc1ccccc1N=Nc1ccc(NC(=O)c2ccc(F)cc2)c(C)c1 [Compound 4]	105 ± 11 nM	–
Cc1ccccc1N=Nc1ccc(NC(=O)C(C)C)c(C)c1 [Compound 5]	110 ± 7 nM	–
Cc1ccccc1N=Nc1ccc(NC(=O)c2cccs2)c(C)c1 [Compound 6]	153 ± 10 nM	–
Cc1cc(N=Nc2ccccc2C)ccc1N [Compound 7]	–	IC50 ([1]; HepG2, Hep G2 cells, 3 nM 2,3,7,8-tetrachlorodibenzo-p-dioxin, measured after 24 hours): 215 ± 42 nM
CCCCNC(=O)Nc1ccc(N=Nc2ccccc2C)cc1C [Compound 8]	450 ± 75 nM	–
